Source: patent US11253594B2, “Drug combinations for protecting against neuronal cell death” (UNIVERSITY OF PITTSBURGH-OF THE COMMONWEALTH SYSTEM OF …, priority 2017, dated 2022)

Test system: STHdh^Q111 cells
Experiment: 384-well PI (propidium iodide) assay, protection from mHTT induced cell death
Assay type: cell-based, mouse
Details: FIG. 10
Protocol: The well-established STHdh^Q111 cell model for HD was employed to identify compounds that can protect neuronal cells from mHTT-dependent cell death. […] The propidium iodide (PI) readout enables an unbiased assessment of cell death by measuring an irreversible step that is common to all cytotoxic mechanisms.
The stress conditions for testing compounds involved incubation of the cells in serum-free medium at 37° C. and 5% CO2.
Prior to compound treatment, medium was removed and the cells washed once with PBS (pH=7.4) after which 45 μl of complete medium was added. Compounds in 5 μl complete medium were added to cells. […] Compounds in serum free medium (5 μl) were added and cells were incubated at 37° C. and 5% CO2.
Image analysis was carried out using the Multiwavelength Cell Scoring application in the MetaXpress software. The nuclear compartment was identified in Ch1 with a threshold intensity of 2,000 above background and the Texas Red compartment was identified in Ch2 with a threshold intensity of 20,000 above background.
For the analyses presented here the Percent Recovery was calculated from the Percent PI positive cells by:
[formula] where positive controls are the STHdh^Q7 cells, and negative controls are the STHdh^Q111 cells treated with DMSO
The LOPAC library was screened in the 384-well PI assay at 30, 10, and 3 μM.

## CCOc1ccc2nc(S(C)(=O)=O)sc2c1 [methyl sulfonyl analog of ETX, 6-ethoxy-2-(methylsulfonyl) benzo[d]thiazole]
  efficacy relative to ethoxzolamide: equally efficacious
Maximal protection
  STHdh^Q111 cells protected: ~50%
Propidium iodide assay
  potency in protecting STHdh^Q111 cells relative to ETX: 7 fold
